Assay results taken from US20230049952A1, “METHODS AND COMPOUNDS FOR RESTORING MUTANT P53 FUNCTION” (PMV Pharmaceuticals, Inc., priority 2020, published 2023).
Like-named read-outs stand apart in the source and are kept apart here.

Tests used:
[1] = target: CYP2C9 (Homo sapiens, UniProt P11712); test: CYP inhibition in human liver microsomes; assay type: in vitro ADME; design: from tissue; host or cells: pooled human liver microsomes, 200 donors; conditions: both sexes, pooled human liver microsomes, pH 7.4, HLM, read-out: % of Control Enzyme Activity
Protocol: The HLMs were stored at −80° C. until use.
Negative (vehicle) controls were conducted without a test article.

[2] = test system: CYP enzymes in human liver microsomes; conditions: HLM, probe S-Mephenytoin 25 μM
Protocol: Pooled HLM were stored at −80° C. until use. […] The reaction was initiated by adding NADPH, followed by incubation at 37° C.
Corrected CLint=Raw CLint−Negative Control CLint; Δ CLint=CLHint(TA+NADPH−Inhibitor)−CLint (TA+NADPH+Inhibitor).

[3] = target: T1, OCT2 (Homo sapiens, UniProt O15244); conditions: 2 min/5 μM
T1 sequence (O15244 1-555): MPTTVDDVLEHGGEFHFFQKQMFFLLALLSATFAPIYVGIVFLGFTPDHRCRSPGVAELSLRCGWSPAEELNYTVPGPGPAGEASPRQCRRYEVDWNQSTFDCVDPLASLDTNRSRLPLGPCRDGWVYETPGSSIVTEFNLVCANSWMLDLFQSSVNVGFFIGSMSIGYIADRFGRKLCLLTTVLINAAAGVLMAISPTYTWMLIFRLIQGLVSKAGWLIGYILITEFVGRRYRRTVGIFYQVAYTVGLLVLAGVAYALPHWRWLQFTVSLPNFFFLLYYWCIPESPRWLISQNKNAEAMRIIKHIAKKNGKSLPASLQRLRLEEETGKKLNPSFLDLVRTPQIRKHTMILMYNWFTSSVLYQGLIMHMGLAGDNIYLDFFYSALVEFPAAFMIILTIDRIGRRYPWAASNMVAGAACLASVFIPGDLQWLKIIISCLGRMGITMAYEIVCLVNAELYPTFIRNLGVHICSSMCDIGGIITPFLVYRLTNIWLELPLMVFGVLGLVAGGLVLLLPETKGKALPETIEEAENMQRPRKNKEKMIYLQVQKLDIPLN
Protocol: All experiments were conducted in duplicate (n=2). The cells were incubated for the indicated time in a humidified incubator (37° C. 5% CO2). […] The uptake incubation was stopped by two washes with ice-cold HBSSg.

[4] = target: T2, CYP2C8 (Homo sapiens, UniProt P10632); test: in vitro; conditions: both, microsomes, pH 7.4
T2 sequence (P10632 1-490): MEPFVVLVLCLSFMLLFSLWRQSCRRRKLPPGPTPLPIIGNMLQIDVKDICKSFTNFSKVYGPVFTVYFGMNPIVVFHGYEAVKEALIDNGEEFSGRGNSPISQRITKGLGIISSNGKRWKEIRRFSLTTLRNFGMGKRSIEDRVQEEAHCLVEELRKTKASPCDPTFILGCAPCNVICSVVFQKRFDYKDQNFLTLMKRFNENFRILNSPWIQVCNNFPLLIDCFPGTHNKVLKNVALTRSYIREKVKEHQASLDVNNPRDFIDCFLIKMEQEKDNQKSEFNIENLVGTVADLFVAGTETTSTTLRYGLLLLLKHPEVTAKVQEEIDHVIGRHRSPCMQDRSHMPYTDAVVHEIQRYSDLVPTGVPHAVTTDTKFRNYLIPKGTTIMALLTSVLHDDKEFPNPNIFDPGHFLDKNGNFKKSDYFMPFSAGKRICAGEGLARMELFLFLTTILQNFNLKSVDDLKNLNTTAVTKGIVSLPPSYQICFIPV

[5] = target: CYP2D6 (Homo sapiens, UniProt P10635); test: CYP inhibition in human liver microsomes; assay type: in vitro ADME; design: from tissue; host or cells: pooled human liver microsomes, 200 donors; conditions: both sexes, pooled human liver microsomes, pH 7.4, HLM, read-out: % of Control Enzyme Activity
[6] = test system: p53 in HCT116; test: p53 (DO-1) Western blot; assay type: cell-based, human; conditions: HCT116 + RG7388 50 nM, 24 hr
Protocol: (§1) Protein samples were quantified using BCA.
(§2) Western blot: For each cell line, 10 μg of total protein were run on a 4-12% Bis-Tris precast gel. The gel was transferred to a nitrocellulose membrane. The membrane was blocked for 1 hour using the Odyssey TBS blocking solution. Membranes were incubated overnight in p53 (p53, DO-1) and actin (beta-actin) primary antibodies. The next day, blots were washed and incubated in either goat anti-mouse for p53 or goat-anti-rabbit for actin secondaries antibodies. Blots were then washed and imaged using an Odyssey CLx imaging system. Bands were quantified using Image Studio software and normalized to the actin control. The p53 or actin levels were then normalized to the NUGC3 band and graphed using Prism.
(§3) Since p53 protein pools are strongly autoregulated by degradation by the transcriptional target MDM2, pools of p53 accumulate to high levels in cells with mutant p53.

[7] = test system: p53 in SJSA1; test: p53 (DO-1) Western blot; assay type: cell-based, human; conditions: SJSA1 + RG7388 50 nM, 24 hr
Protocol: as §1, §2, §3

[8] = target: T3, OATP1B1 (Homo sapiens, UniProt Q9Y6L6); test: uptake transporter inhibition assessment, transfected HEK293; conditions: inhibitor 10 μM
T3 sequence (Q9Y6L6 1-691): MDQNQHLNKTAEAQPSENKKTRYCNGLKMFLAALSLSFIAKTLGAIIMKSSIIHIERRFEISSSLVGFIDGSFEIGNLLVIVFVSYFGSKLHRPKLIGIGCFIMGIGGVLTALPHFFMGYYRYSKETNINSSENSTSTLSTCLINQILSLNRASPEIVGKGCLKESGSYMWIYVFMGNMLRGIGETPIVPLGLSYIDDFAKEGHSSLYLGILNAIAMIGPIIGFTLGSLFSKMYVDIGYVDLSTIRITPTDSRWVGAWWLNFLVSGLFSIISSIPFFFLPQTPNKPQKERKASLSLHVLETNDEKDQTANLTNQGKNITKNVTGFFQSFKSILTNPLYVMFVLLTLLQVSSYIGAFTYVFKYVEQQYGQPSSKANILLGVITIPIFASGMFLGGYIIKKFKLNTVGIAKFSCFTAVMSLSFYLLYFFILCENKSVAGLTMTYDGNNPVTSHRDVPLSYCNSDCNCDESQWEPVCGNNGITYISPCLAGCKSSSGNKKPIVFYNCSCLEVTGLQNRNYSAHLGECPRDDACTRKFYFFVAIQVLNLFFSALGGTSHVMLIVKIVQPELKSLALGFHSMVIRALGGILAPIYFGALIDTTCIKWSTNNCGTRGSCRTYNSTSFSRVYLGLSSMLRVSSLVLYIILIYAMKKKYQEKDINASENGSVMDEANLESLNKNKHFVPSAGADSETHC

[9] = target: T4, OATP1B3 (Homo sapiens, UniProt Q9NPD5); test: as above; conditions: inhibitor 10 μM
T4 sequence (Q9NPD5 1-702): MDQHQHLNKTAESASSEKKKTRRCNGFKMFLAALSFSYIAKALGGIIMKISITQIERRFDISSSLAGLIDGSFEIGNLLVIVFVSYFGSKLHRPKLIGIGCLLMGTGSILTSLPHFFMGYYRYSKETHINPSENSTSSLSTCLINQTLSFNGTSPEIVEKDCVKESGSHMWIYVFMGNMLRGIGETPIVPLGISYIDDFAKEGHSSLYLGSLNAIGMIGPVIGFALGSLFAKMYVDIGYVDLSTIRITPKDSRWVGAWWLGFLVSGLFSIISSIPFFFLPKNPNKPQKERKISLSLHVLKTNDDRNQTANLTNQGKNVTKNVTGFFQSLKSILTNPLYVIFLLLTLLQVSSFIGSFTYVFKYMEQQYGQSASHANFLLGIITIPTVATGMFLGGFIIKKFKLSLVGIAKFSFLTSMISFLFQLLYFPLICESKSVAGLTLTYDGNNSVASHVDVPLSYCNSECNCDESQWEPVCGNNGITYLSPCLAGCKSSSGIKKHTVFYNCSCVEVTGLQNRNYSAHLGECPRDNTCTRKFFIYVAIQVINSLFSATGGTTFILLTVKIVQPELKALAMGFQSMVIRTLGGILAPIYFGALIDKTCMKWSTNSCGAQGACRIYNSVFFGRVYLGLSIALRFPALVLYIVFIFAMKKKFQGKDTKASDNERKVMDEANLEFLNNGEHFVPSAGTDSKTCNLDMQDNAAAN

[10] = test system: human hepatocytes; test: cell viability (MTS) after CYP induction treatment of human hepatocytes; conditions: after CYP1A2 induction treatment
Protocol: Cell Viability Assay: After the CYP induction treatment and enzyme activity assay, the cells were used for a cell viability assay. The viability of cells, expressed as the percentage of MTS absorbance relative to vehicle control, was measured as described above.

[11] = +NADPH −Inhibitor, Maximum Metabolism
[12] = −NADPH −Inhibitor, Negative Control

Sequence of CYP2D6 (P10635 whole entry): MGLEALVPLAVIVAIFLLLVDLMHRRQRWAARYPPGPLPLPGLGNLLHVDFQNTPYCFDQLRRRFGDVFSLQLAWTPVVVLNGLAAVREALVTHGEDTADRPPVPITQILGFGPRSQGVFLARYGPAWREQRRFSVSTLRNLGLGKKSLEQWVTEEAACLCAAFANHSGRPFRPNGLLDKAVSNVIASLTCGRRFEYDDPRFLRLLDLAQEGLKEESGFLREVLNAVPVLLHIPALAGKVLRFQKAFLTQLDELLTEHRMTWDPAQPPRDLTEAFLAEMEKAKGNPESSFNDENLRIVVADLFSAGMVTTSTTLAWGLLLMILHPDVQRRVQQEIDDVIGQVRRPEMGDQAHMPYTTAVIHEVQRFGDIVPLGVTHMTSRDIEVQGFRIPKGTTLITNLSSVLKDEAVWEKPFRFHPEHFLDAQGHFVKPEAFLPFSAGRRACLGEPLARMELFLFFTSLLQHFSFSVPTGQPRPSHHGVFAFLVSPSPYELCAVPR
Sequence of CYP2C9 (P11712 whole entry): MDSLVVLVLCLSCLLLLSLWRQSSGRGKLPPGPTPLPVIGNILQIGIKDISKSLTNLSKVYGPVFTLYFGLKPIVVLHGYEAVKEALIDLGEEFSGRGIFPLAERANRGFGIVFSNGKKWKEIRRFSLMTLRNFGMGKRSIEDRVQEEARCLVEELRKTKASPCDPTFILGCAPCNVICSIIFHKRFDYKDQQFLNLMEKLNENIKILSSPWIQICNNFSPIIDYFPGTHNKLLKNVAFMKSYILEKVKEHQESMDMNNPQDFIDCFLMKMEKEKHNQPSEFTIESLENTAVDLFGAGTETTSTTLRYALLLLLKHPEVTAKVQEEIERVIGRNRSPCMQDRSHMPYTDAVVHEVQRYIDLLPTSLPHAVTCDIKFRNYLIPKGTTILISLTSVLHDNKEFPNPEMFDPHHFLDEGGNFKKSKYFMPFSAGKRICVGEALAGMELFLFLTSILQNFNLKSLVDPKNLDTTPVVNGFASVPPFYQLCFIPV

With Nc1ccc(S(=O)(=O)Nc2ccnn2-c2ccccc2)cc1 [Sulfaphenazole, sulfaphenazole] the activity at 20 min, 0.123 µM ([1]; 0.123 μM) was 76.9%, the activity at 20 min, 0.37 µM ([1]; 0.370 μM) was 55.4% and the activity at 20 min, 3.33 µM ([1]; 3.33 μM) was 16.3%. The activity at 20 min, 10 µM ([1]; 10.0 μM) was 7.69%.
In the case of CC[C@@]1(c2ccccc2)NC(=O)N(C)C1=O [S-Mephenytoin], the “Formation Rate (4′-OH Mephenytoin)” value [2, 11] is reported as 39.8 pmol/min/mg protein, the “Measured Metabolite (4′-OH Mephenytoin)” value [2, 11] is reported as 0.398 µM and the “Formation Rate (4′-OH Mephenytoin)” value [2, 12] is reported as 0 pmol/min/mg protein. The “Measured Metabolite (4′-OH Mephenytoin)” value [2, 12] was 0 µM.
C[n+]1ccc(-c2ccccc2)cc1 [MPP, MPP+] was tested, and the “Substrate Assessment” value [3] was “Positive (Influx Rate Ratio≥2.0: Positive)”, the “Influx Rate AVG” value ([3]; OCT2 cells) was 403 pmol/minute/mg/protein and the “Influx Rate Ratio” value ([3]; OCT2 vs Vector Control) was 16.6. The “Influx Rate AVG” value ([3]; Vector Control cells) was 24.3 pmol/minute/mg/protein.
Molecule CC(C)(O)c1ccccc1CC[C@@H](SCC1(CC(=O)O)CC1)c1cccc(/C=C/c2ccc3ccc(Cl)cc3n2)c1 [Montelukast, montelukast] has an activity at 20 min, 0.123 µM [4] of 54%, an activity at 20 min, 0.37 µM [4] of 26.8% and an activity at 20 min, 3.33 µM [4] of 4.22%. It also gave an activity at 20 min, 10 µM [4] of 2.17%.
For C=C[C@H]1C[N@@]2CC[C@H]1C[C@@H]2[C@@H](O)c1ccnc2ccc(OC)cc12 [Quinidine, quinidine], the activity at 20 min, 0.123 µM ([5]; 0.123 μM) was 30.6%, the activity at 20 min, 0.37 µM ([5]; 0.370 μM) was 17.7% and the activity at 20 min, 3.33 µM ([5]; 3.33 μM) was 8.69%. For the same molecule, the activity at 20 min, 10 µM ([5]; 10.0 μM) was 7.28%.
With COc1cc(C(=O)O)ccc1NC(=O)[C@@H]1N[C@@H](CC(C)(C)C)[C@](C#N)(c2ccc(Cl)cc2F)[C@H]1c1cccc(Cl)c1F [RG7388] the DO1/Actin [6] was 0.065, the DO1 band density [6] was 1300 and the “normalized DO1/Actin” value ([6]; normalized to NUGC3) was 0.524. The DO1/Actin [7] was 0.008, the DO1 band density [7] was 94.5 and the “normalized DO1/Actin” value ([7]; normalized to NUGC3) was 0.068.
In the case of CO[C@H]1/C=C/O[C@@]2(C)Oc3c(C)c([O-])c4c(O)c(cc(O)c4c3C2=O)NC(=O)/C(C)=C\C=C\[C@H](C)[C@H](O)[C@@H](C)[C@@H](O)[C@@H](C)[C@H](OC(C)=O)[C@@H]1C.[Na+] [Rifamycin SV], the “Inhibition Potential Classification” value [8] is reported as “Positive (Percent inhibition≥50%: Positive)”, the “Percent Inhibition” value ([8]; probe Atorvastatin ([…])) is reported as 94.8 and the “Influx Rate AVG” value ([8]; probe Atorvastatin ([…]), OATP1B1-transfected HEK cells) is reported as 1.12 pmol/minute/mg protein. The “Influx Rate AVG” value ([8]; probe Atorvastatin ([…]), Vector Control cells) was 0.769 pmol/minute/mg protein, the “Inhibition Potential Classification” value [9] was “Positive (Percent inhibition≥50%: Positive)” and the “Percent Inhibition” value ([9]; probe atorvastatin (0.1 μM per TABLE 176)) was 94.8. For the same molecule, the “Influx Rate AVG” value ([9]; probe atorvastatin (0.1 μM per TABLE 176), OATP1B3-transfected HEK cells) was 0.991 pmol/minute/mg protein and the “Influx Rate AVG” value ([9]; probe atorvastatin (0.1 μM per TABLE 176), Vector Control cells) was 0.769 pmol/minute/mg protein.
For COc1ccc2[nH]c([S+]([O-])Cc3ncc(C)c(OC)c3C)nc2c1 (stereo not shown) [OME], the “Formazan Absorbance (n = 3) Mean” value ([10]; Donor 1, 50 μM) was 0.494, the “Formazan Absorbance (n = 3) Mean” value ([10]; Donor 2, 50 μM) was 0.800 and the “Formazan Absorbance (n = 3) Mean” value ([10]; Donor 3, 50 μM) was 0.433.
